Assay results published in patent publication US6057311A, “Benzodiazonine derivatives binding to cholecystokinin or gastrin receptors” (James Black Foundation Limited, priority 1996, dated 2000).

How the values were obtained:
CCKB receptor = target: T1, CCKB receptor (Mus musculus, UniProt P56481); test: radioligand binding assay at the CCKB receptor in mouse cortical membranes ([125I]-CCK8S); conditions: [125I]-CCK8S 200 pM, 150 min at 21±3° C.; for Ki: pH 7.2, read-out: pKi (Mouse cortex) (converted); for pKi (Mouse cortex): pH 7.2
T1 construct: The cortex was dissected, weighed and homogenised in 40 ml ice-cold buffer; tissue Charles River (animals); host or cells: cerebral cortex of male CD1 mice, membranes
T1 sequence (P56481 1-453): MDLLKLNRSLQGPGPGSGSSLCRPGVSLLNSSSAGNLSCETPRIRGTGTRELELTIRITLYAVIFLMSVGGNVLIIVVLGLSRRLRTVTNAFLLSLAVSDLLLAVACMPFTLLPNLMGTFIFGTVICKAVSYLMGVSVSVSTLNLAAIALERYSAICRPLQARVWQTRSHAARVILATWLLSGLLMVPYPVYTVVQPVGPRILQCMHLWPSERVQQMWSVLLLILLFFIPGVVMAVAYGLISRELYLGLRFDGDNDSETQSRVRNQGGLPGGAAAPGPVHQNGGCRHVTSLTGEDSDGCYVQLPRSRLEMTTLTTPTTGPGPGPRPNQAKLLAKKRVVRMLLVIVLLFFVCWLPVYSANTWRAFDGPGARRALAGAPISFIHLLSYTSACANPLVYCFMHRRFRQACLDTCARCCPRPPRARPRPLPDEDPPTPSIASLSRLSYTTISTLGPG
Method: The compounds of the examples were tested for binding at the CCKB receptor in mouse cortical membranes by means of a radioligand binding assay. The procedure was as follows:
The whole brains from male mice (CD1 22-25 g; Charles River) were removed and placed in ice-cold buffer (pH7.2@21±3° C.) of the following composition (mM); 10 HEPES, 130 NaCl, 4.7 KCl, 5 MgCl2, 1 EDTA and containing 0.25 g.1^-1 bacitracin. The cortex was dissected, weighed and homogenised in 40 ml ice-cold buffer using a Teflon-in-glass homogeniser. The homogenate was centrifuged at 39,800 g for 20 min at 4° C., the supernatant discarded and the pellet resuspended by homogenisation in fresh buffer. The homogenate was recentrifuged (39,800 g; 20 min @4° C.) and the final pellet was resuspended in HEPES buffer to give a tissue concentration of 2 mg.ml^-1 (original wet weight).
The membranes (400 μl) were incubated for 150 min at 21±3° C. in a final volume of 0.5 ml with HEPES buffer containing [^125 I]-CCK8S (0.05 ml; 200 pM NEN 2200 Ci.mmol^-1) and competing compound. Total and non-specific binding of [^125 I]-CCK8S were defined using 0.05 ml of buffer and 0.05 ml of […] L-365,260, respectively. The assay was terminated by rapid filtration through pre-soaked Whatman GF/B filters using a Brandell Cell harvester. The filters were washed (3×3 ml) with ice-cold 50 mM Tris-HCl (pH7.4@4° C.) and bound radioactivity determined by counting (1 min.) in a gamma-counter.

CCKA = target: T2, CCKA (Cavia porcellus, UniProt Q63931); test: CCKA binding assay, guinea pig pancreas membranes ([125I]-CCK8(S)); conditions: [125I]-CCK8(S) 200 pM, 0.375 μM PD134,308, 150 min at 21±3° C.; for Ki: pH 7.2, read-out: pKi (Guinea pig pancreas) (converted); for pKi (Guinea pig pancreas): pH 7.2
T2 construct: The pancreatata were removed from male guinea-pigs; from tissue; host or cells: pancreas of male Dunkin Hartley guinea pigs, membranes
T2 sequence (Q63931 1-430): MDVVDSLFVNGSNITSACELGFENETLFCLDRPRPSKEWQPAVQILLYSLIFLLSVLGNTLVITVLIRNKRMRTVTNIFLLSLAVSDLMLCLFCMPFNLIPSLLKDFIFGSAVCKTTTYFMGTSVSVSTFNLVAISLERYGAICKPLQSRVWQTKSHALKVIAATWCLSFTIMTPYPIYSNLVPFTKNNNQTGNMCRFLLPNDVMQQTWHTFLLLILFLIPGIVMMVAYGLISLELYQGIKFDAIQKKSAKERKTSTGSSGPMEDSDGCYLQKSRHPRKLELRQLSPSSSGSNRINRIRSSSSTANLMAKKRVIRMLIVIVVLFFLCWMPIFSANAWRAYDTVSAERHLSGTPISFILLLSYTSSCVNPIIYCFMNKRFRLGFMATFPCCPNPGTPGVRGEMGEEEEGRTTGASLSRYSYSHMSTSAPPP
Method: The compounds of the examples were also tested in a CCKA binding assay as follows:
The pancreatata were removed from male guinea-pigs (200-300 g; Dunkin Hartley) and placed in ice-cold HEPES buffer (pH 7.2@21±3° C.). The pancreatata were homogenised in 40 ml ice-cold HEPES buffer using a polytron (Brinkmann, PT10, setting 10) 4×1 second. The homogenate was centrifuged at 39,800 g for 15 min at 4° C. The supernatant was discarded and the pellet re-suspended using a Teflon-in-glass homogeniser in 20 volumes of fresh buffer and re-centrifuged as above. The final pellet was re-suspended using a Teflon-in-glass homogeniser to a tissue concentration of 1 mg.ml^-1 (original wet weight), and filtered through 500 μm pore-size Nytex mesh.
The membranes (400 μl; containing 0.375 μM PD134,308) were incubated for 150 minutes at 21±3° C. in a final volume of 0.5 ml with HEPES buffer containing [^125 I]-CCK8 (S) (50 μl; 200 pM) and competing compound. Total and non-specific binding of [^125 I]-CCK8 (S) were defined using 50 μl of buffer and 50 μl of 100 nM L-364,718 respectively. The assay was terminated by rapid filtration through pre-soaked Whatman GF/B filters using a Brandell Cell Harvester. The filters were washed (3×3 ml) with ice-cold 50 mM Tris HCl (pH 7.4 at 4° C.) and bound radioactivity was determined by counting (1 min) in a gamma counter.

| Ki (CCKB receptor) [nM] | Ki (CCKA) [nM] | pKi (Mouse cortex) (CCKB receptor) | pKi (Guinea pig pancreas) (CCKA) | SMILES |
| --- | --- | --- | --- | --- |
| 20000 | 10000 |  |  | CC(C)(C)OC(=O)CN1C(=O)CN(C(=O)OCc2ccccc2)CCC(=O)c2ccccc21 [Example 42, 4-benzyloxycarbonyl-1-tert-butyloxycarbonylmethyl-2,7-dioxo-2,3 4,5,6,7-hexahydro-1H-1,4-benzodiazonine] |
| 200 | 10000 |  |  | CC(=O)N1[C@H](CC23CC4CC(CC(C4)C2)C3)C(=O)N(Cc2cccc(F)c2)c2ccccc2C(=O)C[C@H]1C(=O)NCC(=O)O [Example 60, (3R,5S)-4-acetyl-3-(1-adamantyl)methyl-1-(3-fluorobenzyl)-5-carboxymethylaminocarbonyl-2,7-dioxo-2,3,4,5,6,7-hexahydro-1H-1,4-benzodiazonine] |
| 2510 | 316 |  |  | Cc1cccc(NC(=O)N2CCC(C)c3ccccc3N(Cc3ccccc3)C(=O)C2)c1 (stereo not shown) [Example 10, 1-benzyl-7-methyl-4-(3-methylphenyl)carbamyl-2-oxo-2,3,4,5,6,7-hexahydro-1H-1,4-benzodiazonine] |
| 1260 | 1580 |  |  | CC(=O)N1[C@H](CC23CC4CC(CC(C4)C2)C3)C(=O)N(Cc2cccc(Cl)c2)c2ccccc2C(=O)C[C@H]1C(=O)O [Example 15] |
| 10000 | 1000 |  |  | Cc1cccc(NC(=O)N2CCC(O)c3ccccc3N(Cc3ccccc3)C(=O)C2)c1 (single isomer, unassigned; isomer 2) [Example 8, 1-benzyl-7-hydroxy-4-(3-methylphenyl)carbamyl-2-oxo-2,3,4,5,6,7-hexahydro-1H-1,4-benzodiazonine (isomer 2)] |
|  |  | 5.3 | 5.0 | CC(=O)N1[C@H](CCC(C)C)C(=O)N(Cc2ccccc2)c2ccccc2C(=O)C[C@H]1C(=O)NCC(=O)O [Example 38, (3R,5S)-4-acetyl-1-benzyl-5-carboxymethylaminocarbonyl-3-(3,3-dimethyl)propyl-2,7-dioxo-2,3,4,5,6,7-hexahydro-1H-1,4-benzodiazonine] |
| 1260 | 6310 |  |  | CC(=O)N1[C@H](CC23CC4CC(CC(C4)C2)C3)C(=O)N(Cc2cccc(N)c2)c2ccccc2C(=O)C[C@H]1C(=O)O [Example 17, (3R,5S)-4-acetyl-3-[(1-adamantyl)methyl]-1-(3-amino)benzyl-2,7-dioxo-2,3,4,5,6,7-hexahydro-1H-1,4-benzodiazonine-5-carboxylate] |
| 3160 | 794 |  |  | CCC1CCN(C(=O)Nc2cccc(C)c2)CC(=O)N(Cc2ccccc2)c2ccccc21 (stereo not shown) [Example 51, 1-benzyl-7-ethyl-4-(3-methylphenyl)carbamyl-2-oxo-5,2,3,4,5,6,7-hexahydro-1H-1,4-benzodiazonine] |
| 7940 | 15800 |  |  | CC(=O)N1[C@H](CC(C)(C)C)C(=O)N(Cc2ccccc2)c2ccccc2C(=O)C[C@H]1C(=O)O [Example 19, (3R,5S)-4-acetyl-1-benzyl-3-(2,2-dimethylpropyl)-2,7-dioxo-2,3,4,5,6,7-hexahydro-1H-1,4-benzodiazonine-5-carboxylate] |
|  |  | 5.5 | 5.2 | CC(=O)N1[C@H](CC23CC4CC(CC(C4)C2)C3)C(=O)N(Cc2ccccc2)c2ccccc2C(=O)C[C@H]1C(=O)N(C)CC(=O)O (single isomer, unassigned; isomer 1) [Example 29] |
| 398 | 12600 |  |  | CC(=O)N1[C@H](CC23CC4CC(CC(C4)C2)C3)C(=O)N(Cc2ccccc2)c2ccc(F)cc2C(=O)C[C@H]1C(=O)NCC(=O)O (relative stereo) [Example 61, (+/-)-trans-4-acetyl-3-(1-adamantyl)methyl-1-benzyl-5-carboxymethylaminocarbonyl-2,7-dioxo-9-fluoro-2,3,4,5,6,7-hexahydro-1H-1,4-benzodiazonine] |
| 1000 | 10000 |  |  | CC(=O)N1[C@H](CC23CC4CC(CC(C4)C2)C3)C(=O)N(Cc2ccccc2)c2ccccc2C(=O)C[C@H]1C(=O)NCCC(=O)O [Example 23, (3R,5S)-4-acetyl-3-(1-adamantyl)methyl-1-benzyl-5-(2-carboxy)ethylaminocarbonyl-2,7-dioxo-2,3,4,5,6,7-hexahydro-1H-1,4-benzodiazonine] |
| 3980 | 316 |  |  | C=C1CCN(C(=O)Nc2cccc(C)c2)CC(=O)N(Cc2ccccc2)c2ccccc21 [Example 9, 1-benzyl-7-methylene-4-(3-methylphenyl)carbamyl-2-oxo-2,3,4,5,6,7-hexahydro-1H-1,4-benzodiazonine] |
| 100 | 10000 |  |  | CC(=O)N1[C@H](CC23CC4CC(CC(C4)C2)C3)C(=O)N(Cc2ccccc2F)c2ccccc2C(=O)C[C@H]1C(=O)NCC(=O)O [Example 59, (3R,5S)-4-acetyl-3-(1-adamantyl)methyl-1-(2-fluorobenzyl)-5-carboxymethyaminocarbonyl-2,7-dioxo-2,3,4,5,6,7-hexahydro-1H-1,4-benzodiazonine] |
|  |  | 6.9 | 5.0 | CC(=O)N1[C@H](CC23CC4CC(CC(C4)C2)C3)C(=O)N(Cc2ccccc2)c2ccccc2C(=O)C[C@H]1C(=O)N[C@@H](C)C(=O)O [Example 24, (3R,5S)-4-acetyl-3-(1-adamantyl)methyl-1-benzyl-5-[(1S)-carboxy]ethylaminocarbonyl-2,7-dioxo-2,3,4,5,6,7-hexahydro-1H-1,4-benzodiazonine] |
| 2510 | 3160 |  |  | COc1ccc(CN2C(=O)[C@@H](CC34CC5CC(CC(C5)C3)C4)N(C(C)=O)[C@H](C(=O)O)CC(=O)c3ccccc32)cc1 [Example 14, (3R,5S)-4-acetyl-3-[(1-adamantyl)methyl]-1-(4-methoxy)benzyl-2,7-dioxo-2,3,4,5,6,7-hexahydro-1H-1,4-benzodiazonine-5-carboxylate] |
| 2510 | 7940 |  |  | Nc1cccc(CN2C(=O)C(CC34CC5CC(CC(C5)C3)C4)N(C(=O)CC(=O)O)CCC(=O)c3ccccc32)c1 (racemic) [Example 35, (R/S)-3-(1-adamantyl)methyl-1-(3-amino)benzyl-4-carboxymethylcarbonyl-2,7-dioxo-2,3,4,5,6,7-hexahydro-1H-1,4-benzodiazonine] |
